{"source": "patent US8981179B2", "about": "“Transgenic non-human animal and uses thereof” (Sanofi, priority 2009, dated 2015)", "key": {"[1]": {"tested_on": "β-adrenergic receptor (ADβR)", "assay": "Whole splenocytes CreLuc luciferase assay, ADβR agonist", "type": "cell-based, mouse", "details": "line 64 whole splenocytes, 10 uM, 4 hours", "quoted_text": "Whole splenocyte preps isolated from CreLuc mice (line 64) were used to show the effects of general cAMP inducers such as forskolin and rolipram, as well as Gs agonists on luciferase expression (FIG. 16). […] The cell suspension was then passed through a 70 um strainer into a 50 ml conical tube. […] Cells were diluted to 2×10^6/ml, and 100 ul of the cells were plated per well in a 96 well white opaque plate. […] At 24 hours, compounds were added to the plates for an additional 4 hours. The general inducers include rolipram (Sigma R6520), forskolin (Sigma F6886). […] The assay was run in triplicate. After 4 hours, 100 μl of BrightGlo (Promega, Madison, Wis., cat#E2610) and the assay was read on a TopCount luminometer. […] The preparation used in the experiment was a whole splenocyte preparation which is a mixed population of cells."}, "CRE Luc reporter": {"tested_on": "CRE Luc reporter", "assay": "In vivo bioluminescence imaging of CreLuc transgenic mouse after isoproterenol", "details": "bioimaging", "protocol": "Administration of isoproterenol (right panel) increases spinal cord expression of the CRE Luc reporter compared to basal levels (left panel). The bioluminescent detection is represented visually on a white-light image of the animal as a pseudocolor representation in grayscale. […] For in vivo assays, the animals are dosed with luciferin only and then bioimaged on an IVIS bioimager to get baseline signal. The animals are then dosed with compound, and then bioimaged again at a set timepoint to examine the effects of the compound on the luciferase signal. Data can be analyzed as the fold induction of the induced signal versus the baseline signal. For the ex vivo assays, mice are dosed with either compound or vehicle, and then at a set timepoint, tissues are harvested and frozen. The tissues can then be homogenized and a luciferase assay such as Promega Luciferase assay system (Promega cat #E1500) run on the tissue extracts and the assay read on a luminometer such as the Topcount. Data can be analyzed as the relative light units per μg protein, comparing vehicle versus compound groups."}, "ADβR [2]": {"tested_on": "ADβR", "assay": "Isolated CD4+ T cells CreLuc luciferase assay, ADβR agonist", "type": "cell-based, mouse", "details": "line 64 CD4+ T cells, anti CD3 24 hours, 10 μM, 4 hours", "protocol": "The effects of different Gs agonists on luciferase levels in anti CD3 stimulated CD4+ T cells isolated from CreLuc mice was studied (FIG. 19). Whole splenocyte populations were prepared by mechanical disruption. CD4+ cells were then isolated by MACS Magnetic Separation with Positive Selection (Miltenyi Biotec cat#130-049-201). The cells, 1.5×10^5 per well, were then plated on 96 well white opaque plates and then stimulated with anti CD3 antibodies (BD Pharmingen cat#553058). After 24 hours, compounds were added for an additional 4 hours. Gs agonists for DP (B[…]), EP2 (EX00000173A) and ADβR (isoproterenol) were all used at 10 μM. Forskolin 5 μM, and rolipram 10 μM. BrightGlo (Promega, Madison, Wis., cat#E2610) was added and the assay was read on the TopCount. A 25-fold increase is observed in cells treated with forskolin and rolipram. […] The transgene was responsive to specific Gs agonists as well as general modulators of the cAMP pathway."}, "ADβR [3]": {"tested_on": "ADβR", "assay": "Cardiomyocytes CreLuc luciferase assay, ADβR agonist", "type": "cell-based, mouse", "details": "cardiomyocytes line 229, 10 μM isoproterenol", "protocol": "The effects of forskolin and rolipram and isoproterenol on luciferase levels in cardiomyocytes was studied (FIG. 35). Cardiomyocytes were isolated from P3 pups from line 229. The cells were cultured in a 96 well plate. Compounds tested include 10 μM forskolin, 5 μM rolipram and 10 μM isoproterenol (ADβR agonist)."}, "ADβR [4]": {"tested_on": "ADβR", "assay": "Mouse embryonic fibroblasts CreLuc luciferase assay, ADβR agonist", "type": "cell-based", "details": "six independent CreLuc lines, 10 μM isoproterenol", "protocol": "The effects of forskolin, rolipram and isoproterenol on luciferase expression in mouse embryonic fibroblasts was investigated (FIG. 33). Mouse embryonic fibroblasts were cultured from E12 embryos from six independent CreLuc lines. Cells were plated at 20,000 cells per well. Compounds tested include 10 μM forskolin, 5 μM rolipram and 10 μM isoproterenol (ADβR agonist)."}, "[5]": {"tested_on": "cAMP pathway (CreLuc luciferase reporter) in brain slices", "assay": "Whole brain slice luminescence, cAMP pathway activators", "type": "cell-based, mouse", "details": "line 187, 1 uM isoproterenol, 2 days", "quoted_text": "In general, brains from CreLuc mice can be harvested and then either cut into slices on a microtome or various subregions can also be dissected out and then sliced on a microtome. The slices can then be incubated with different compounds such as forskolin and rolipram, or GPCR specific compounds. Luciferase levels can then be measured with an IVIS bioimager or a photomultiplier with a carousel to take quantitative timecourse measurements.\nThus, isoproterenol was used to increase the luciferase signal window which allows for screening GPCR specific compounds such as Gi agonists.\nCompound activity can also be quantitated over time in a viable brain slice and luciferase expression can be visualized by a bioimager. […] Forskolin is a general activator of cAMP."}, "[6]": {"tested_on": "β adrenergic receptors (ADβR)", "assay": "Primary cortical neurons CreLuc luciferase assay, Gs modulation via ADβR", "type": "cell-based, mouse", "details": "cortical neurons line 187, day 3, 10 μM, 4 hours", "source_text": "A general schematic of the workflow for the isolation and compound treatment of primary neuronal cells from the CreLuc model is depicted in FIG. 9. Cortices or other brain subregions are removed from embryos, usually embryonic (E) day 17 or 18, but also as early as E14. The individual neurons are then isolated and plated onto 96 well assay plates. Assays are run either in triplicate or quadruplicate. The assays are run from day 3 in culture up until day 7 or day 10 in culture depending on the expression levels of the target GPCR. Compounds are added to the plates then at a set timepoint, Bright Glo (Promega, Cat #E2610) is added to the plates and the assay is then run on a TopCount or other luminometer.\nPrimary cell cultures from the CreLuc mice may be used to screen compounds that are capable of modulating Gs coupled receptors. Neurons were isolated from the cortices of line 187 E18 embryos. […] The assay was run in triplicates on day three in culture. Forskolin was used at 5 μM, rolipram at 10 μM and the Gs agonists, ADβR-isoproterenol; and Dopamine-SKF82958 (MFG, Cat #C130) at 10 μM. At 4 hours, Bright Glo was added and the assays run on a Topcount. Forskolin is a general activator of cAMP. […] Forskoline and rolipram act synergistically to increase luciferase expression. […]"}, "ADRβ": {"tested_on": "ADRβ", "assay": "Primary striatal neurons CreLuc luciferase assay, ADβR agonist", "type": "cell-based, mouse", "details": "striatal neurons line 187, day 4, 10 μM, 3 μM and 1 μM, 5 hours", "source_text": "Any cell culture derived from the CreLuc mice may be used to screen compounds for the ability to modulate GPCRs. Luciferase expression was induced in CreLuc striatal neurons by forskolin and rolipram, and Gs agonists for DRD1 and ADβR (FIG. 16). Striatum neurons were isolated from E14 embryos. The assays were run at day 4 in culture. […]. Thus, the transgene is functional in striatal as well cortical neurons (see FIG. 10)."}}}
{"smiles": "CC(C)NCC(O)c1ccc(O)c(O)c1", "note": "(centres unmarked) [isoproterenol]", "values": [{"measurement": "luciferase versus DMSO only control (t-test)", "setting": "[1]", "result": "Statistically significant increases"}, {"measurement": "spinal cord expression of the CRE Luc reporter compared to basal levels", "setting": "CRE Luc reporter", "result": "increases"}, {"measurement": "increase of luciferase", "setting": "ADβR [2]", "result": 5, "unit": "fold"}, {"measurement": "increase in luciferase levels", "setting": "ADβR [3]", "result": 2, "unit": "fold"}, {"measurement": "luciferase expression in mouse embryonic fibroblasts", "setting": "ADβR [4]", "result": "Significant increases were also observed in three of the lines"}, {"measurement": "luciferase expression in hippocampal brain slices", "setting": "[5]", "result": "induces luciferase expression levels"}, {"measurement": "increased luci levels vs DMSO control", "setting": "[6]", "result": 11, "unit": "fold"}, {"measurement": "luciferase expression", "setting": "ADRβ", "result": "Significant increases"}]}
